Results taken from patent publication US8759308B2, “RNAi probes targeting cancer-related proteins” (The University of British Columbia, priority 2002, dated 2014).
d = 2'-deoxy (DNA); r = 2'-OH (RNA)

Experiments:
IGFBP-5 transcript [1] = test: IGFBP-5 transcript by RT-PCR in PC3 cells; assay type: cell-based, human; conditions: 10, 50 and 100 nM
Procedure: PC3 cells were transfected with various doses (10, 50 and 100 nM) of the 3 species of bispecies siRNA (BS-1, BS-2 and BS-3) or scrambled control. A vehicle only control was also evaluated. Total. RNA was extracted and analyzed by RT-PCR for IGFBP-5 transcript.

IGFBP-5 transcript [2] = test: IGFBP-5 transcript by RT-PCR in primary human bone fibroblasts; assay type: cell-based; conditions: 50 nM
Procedure: Primary human bone fibroblasts were transfected with 50 nM of the 3 species of bispecific siRNA (BS-1, BS-2 and BS-3) or scrambled control. A vehicle only and an untreated control were was also evaluated. Total RNA was extracted and analyzed by RT-PCR for IGFBP-5 transcript.

clusterin transcript [3] = test: Clusterin transcript by Real Time PCR in PC3 cells; assay type: cell-based, human; conditions: 10, 50 or 100 nM, two days
Procedure: (§1) PC3 cells were transfected with siRNA at levels of 10, 50 or 100 nM or with 100 nM scrambled control. Two days after transfection, total RNA was extracted and the level of clusterin transcript was quantified by Real Time PCR.

clusterin transcript [4] = test: Clusterin transcript by Real Time PCR in A549 cells; assay type: cell-based, human; conditions: 10, 50 or 100 nM, two days
Procedure: as §1
The experiment of Example 9 was repeated using A549 cells in place of PC3 cells.

clusterin transcript [5] = test: Clusterin transcript by Northern blot in PC3 cells; assay type: cell-based, human; conditions: all doses (10, 50 or 100 nM), two days
Procedure: PC3 cells were treated (1 pulse) with CLU-3 (Seq ID NOs. 5 and 6) or CLU-5 (Seq ID Nos 9 and 10) or with a scrambled control at levels of 10, 50 or 100 nM, or with oligoFECTAMINE™ only. After two days total RNA was extracted and analyzed for clusterin and GADPH by Northern blotting. Densitometric measurement was performed. FIG. 10 presents results of these measurements after normalization to GADPH.

PC3 cells = test: PC3 cell viability with siRNA and Taxol, MTT assay; assay type: cell-based, human; conditions: 25 nM siRNA, then Taxol three days
Procedure: PC3 cells were treated once with 25 nM human clusterin siRNAs (CLU-3 and CLU-5), a scrambled control, or oligoFECTAMINE™ only. After two days of treatment, the medium was replaced with medium containing various concentrations of Taxol (Paclitaxel). After three days of incubation, cell viability was determined by MTT assay. FIG. 11 summarizes the results.

CLU protein = test: CLU gene silencing by siRNA in OS cells (immunoblotting); assay type: cell-based, human; conditions: for CLU protein accumulation following exposure to DXR: KH OS and U-2 OS cells, DXR for 24 h in presence of siRNA; for knock-down of secreted CLU (s-CLU) protein form: OS cells; for cellular CLU protein levels / CLU gene silencing: three OS cell lines, 100 nM siRNA duplex, 2-3 days
Text: The human clusterin cDNA was manually scanned in order to identify sequences of the AA(N19)UU (N, any nucleotide) type that fulfill the required criteria for siRNA (Harbourth et al., J Cell Sci 114: 4557-4560 (2001)). Two such sequences with symmetric 2-nt 3′ overhangs, were found 433 (Cl-I) and 644 (Cl-II) nts downstream of the CLU gene transcription initiation codon. Two additional oligonucleotides used targeted a region 1620 nts downstream of the CLU gene transcription initiation codon (Cl-III) and the human CLU transcription initiation site (Cl-V) (see Table). […] Selected RNA oligos were synthesized by Dharmacon Research, Inc. (Lafayette, Colo.), diluted at a 20 μM final concentration in RNasefree ddH2O and stored at −20° C. The Scramble-I™ (Sc-I) (D-1200-20) and Scramble-II™ (Sc-II) (D-1205-20) oligonucleotides used were purchased from Dharmacon Research, Inc.
siRNA transfection of the Cl-I, Cl-II and scrambled RNA duplexes in exponentiary growing OS cells was performed as described (Harbourth et al., Tuschl et al., Genes Dev. 13: 3191-3197 (1999)). Briefly, cells were seeded the day before siRNA transfection in 24-well plates containing 500 μl complete medium and were ˜40-50% confluent during transfection. For the transfection mixture 100 nM of siRNA duplex per well were used. The RNA duplex was diluted in Opti-MEM® I (Gibco Life Technologies, Inc., San Diego, Calif.) serum free medium and transfection efficiency was enhanced by using the Oligofectamine™ reagent (Invitrogen Life technologies Inc., San Diego, Calif.). When cells were treated with both Cl-i and Cl-II oligonucleotides, 100 nM of each siRNA duplex were used. Cell treatment with the siRNA oligonucleotides lasted for 2-3 days.
(§2) Alternatively, in PC3 cells Lipofectin™ (Invitrogen Life technologies Inc., San Diego, Calif.) was used to enhance transfection with the Cl-III and CL-V oligonucleotides. PC3 cells were treated with 10, 50, or 100 nM of the RNA duplexes after pre-incubation with 4 μg/ml of […] reagent in serum free OptiMEM® I for 20 minutes. Four hours after starting the incubation, the medium containing the RNA duplexes and Lipofectin was replaced with standard tissue culture medium. Cells were treated once on day 1 and then harvested 48 h after treatment on day 3. In all cases controls used included: (a) the usage of the Sc-I and Sc-II RNA duplexes and (b) mock transfections in the absence of a nucleic acid (Con-I). CLU gene silencing was assayed by RNA blot analysis, immunoblotting analysis or confocal immunofluorescence.
Efficient silencing of the CLU gene expression in OS cells is achieved using siRNA.

[6] = system: 55 kDa n-CLU protein form; test: Expression of n-CLU protein form after siRNA; assay type: cell-based, human; conditions: KH OS and U-2 OS cells
Text: (§3) OS cells sensitization to genotoxic and oxidative stress due to CLU gene silencing is related to activation of the cellular apoptotic machinery. […] We assume that the explanation of this effect relies on our observation that the n-CLU protein is extremely stable.

[7] = system: 49 kDa c-CLU protein form; test: Expression of c-CLU protein form after siRNA; assay type: cell-based, human; conditions: KH OS and U-2 OS cells
Text: as §3

CLU mRNA and protein = test: CLU gene silencing by siRNA in PC3 cells (RNA blot, immunoblot); assay type: cell-based, human; conditions: sequence-dependent but dose-independent
Procedure: as §2
Effects of CLU gene silencing in PC-3 prostate cancer cells were determined. Having established the significant effects of CLU knock down in OS cells, we then applied CLU siRNA in PC3 human prostate cancer cells. PC3 cells are p53 null (Rohlff, et al., Prostate 37: 51-59 (1998)) and express relatively low endogenous amount of the s-CLU protein form similar to the Sa OS cells. In PC3 cells, apart from employing the Cl-I and Cl-II oligonucleotides, we also tested two additional CLU-specific siRNA oligonucleotides (Cl-III, Cl-V). […]

“BS-1: IGFBP-2 and -5 bispecific siRNA, double-stranded RNA from Seq. ID NOs. 39 and 40 (chain 1 GGAGCCGGGCUGCGGCUGCTT; chain 2 GCAGCCGCAGCCCGGCUCCTT; sugars from the 5' end r19 d2, backbone not given here)” was tested, and the “amount of IGFBP-5 transcript” value (IGFBP-5 transcript [1]) was “reduction in the amount of IGFBP-5 transcript” and the “amount of IGFBP-5 transcript” value (IGFBP-5 transcript [2]) was “reduction in the amount of IGFBP-5 transcript”.
In the case of “BS-2: IGFBP-2 and -5 bispecific siRNA, double-stranded RNA from Seq. ID NOs. 41 and 42 (chain 1 CGUGCGGCGUCUACACCTT; chain 2 GGUGUAGACGCCGCACGTT; sugars from the 5' end r17 d2, backbone not given here)”, the “amount of IGFBP-5 transcript” value (IGFBP-5 transcript [1]) is reported as “reduction in the amount of IGFBP-5 transcript” and the “amount of IGFBP-5 transcript” value (IGFBP-5 transcript [2]) is reported as “reduction in the amount of IGFBP-5 transcript”.
For “BS-3: IGFBP-2 and -5 bispecific siRNA, double-stranded RNA from Seq. ID NOs. 43 and 44 (chain 1 CCAGGGGCUGCGCUGCTT; chain 2 GCAGCGCAGCCCCUGGTT; sugars from the 5' end r16 d2, backbone not given here)”, the “amount of IGFBP-5 transcript” value (IGFBP-5 transcript [1]) was “reduction in the amount of IGFBP-5 transcript” and the “amount of IGFBP-5 transcript” value (IGFBP-5 transcript [2]) was “reduction in the amount of IGFBP-5 transcript”.
For “CLU1: clusterin siRNA, double-stranded RNA from Seq. ID NOs. 1 and 2 (chain 1 CCAGAGCUCGCCCUUCUACTT; chain 2 GUAGAAGGGCGAGCUCUGGTT; sugars from the 5' end r19 d2, backbone not given here)”, the “amount of clusterin transcript” value (clusterin transcript [3]) was “reduction in the amount of clusterin transcript” and the “amount of clusterin transcript” value (clusterin transcript [4]) was “reduction in the amount of clusterin transcript”.
For “CLU3: clusterin siRNA, double-stranded RNA from Seq. ID NOs. 5 and 6 (chain 1 CUAAUUCAAUAAAACUGUCTT; chain 2 GACAGUUUUAUUGAAUUAGTT; sugars from the 5' end r19 d2, backbone not given here)”, the “amount of clusterin transcript” value (clusterin transcript [3]) was “reduction in the amount of clusterin transcript”, the “amount of clusterin transcript” value (clusterin transcript [4]) was “reduction in the amount of clusterin transcript” and the “amount of clusterin transcript normalized to GADPH” value (clusterin transcript [5]) was “Reduction in the amount of clusterin transcript”. For the same substance, the “viable cells with siRNA plus Taxol” value (PC3 cells) was “worked in synergy”.
In the case of “Cl-I: clusterin siRNA duplex, SEQ. ID No: 58 and 59; target 433 nts downstream of CLU transcription initiation codon (chain 1 CCAGAGCUCGCCCUUCUACTT; chain 2 GUAGAAGGGCGAGCUCUGGTT; sugars from the 5' end r19 d2, backbone not given here)”, the “CLU protein accumulation following exposure to DXR” value (CLU protein) is reported as “effectively abolished”, the “effectiveness in silencing the CLU gene, Cl-I compared with Cl-II” value (CLU protein; OS cell lines) is reported as “slightly more effective than Cl-II” and the “knock-down of secreted CLU (s-CLU) protein form” value (CLU protein) is reported as “specifically knock-down”. The “cellular CLU protein levels / CLU gene silencing” value (CLU protein) was “knocking down significantly”, the “effect on putative 55 kDa n-CLU protein form” value [6] was “did not exert any significant effect” and the “effect on 49 kDa c-CLU protein form level” value [7] was “minor effect”.
With “Cl-II: clusterin siRNA duplex, SEQ. ID No: 61 and 62; target 644 nts downstream of CLU transcription initiation codon (chain 1 GUCCCGCAUCGUCCGCAGCTT; chain 2 GCUGCGGACGAUGCGGGACTT; sugars from the 5' end r19 d2, backbone not given here)” the “CLU protein accumulation following exposure to DXR” value (CLU protein) was “effectively abolished”, the “knock-down of secreted CLU (s-CLU) protein form” value (CLU protein) was “specifically knock-down” and the “cellular CLU protein levels / CLU gene silencing” value (CLU protein) was “knocking down significantly”. The “effect on putative 55 kDa n-CLU protein form” value [6] was “did not exert any significant effect” and the “effect on 49 kDa c-CLU protein form level” value [7] was “minor effect”.
With “Cl-III: clusterin siRNA duplex, SEQ. ID No: 64 and 65; targets region 1620 nts downstream of initiation codon (chain 1 CUAAUUCAAUAAAACUGUCTT; chain 2 GACAGUUUUAUUGAAUUAGTT; sugars from the 5' end r19 d2, backbone not given here)” the “silencing CLU RNA and protein expression” value (CLU mRNA and protein) was “quite effective”.
“Cl-V: clusterin siRNA duplex targeting the human CLU transcription initiation site; Table 7 Cl-IV, SEQ. ID No: 67 and 68 (chain 1 AUGAUGAAGACUCUGCUGC; chain 2 GCAGCAGAGUCUUCAUCAU; RNA, backbone not given here) [clusterin siRNA duplex targeting the human CLU transcription initiation site; ID No: 67 and 68]” was tested, and the “silencing CLU RNA and protein expression” value (CLU mRNA and protein) was “quite effective”.
